Data as given in patent US20230293407A1, “Compositions Comprising (Bio)-Alkanediols with Antimicrobials for Product Protection” (Symrise AG, priority 2020, published 2023).

Assays:
Assay in all cases: preservation efficacy test (PET), European Pharmacopoeia 5.1.3
Assay type in all cases: cell-based
[1] = test system: Candida albicans; conditions: for count at 14 days / CA germ count, 14 days: 14 days after inoculation; for CA germ count, 28 days / CA germ count, 2 days / CA germ count, 7 days / CA germ count, 14 days: substance at given % in test formulation; for CA germ count, 2 days: 2 days after inoculation
[2] = test system: Pseudomonas aeruginosa; conditions: for count at 2 days / count at 7 days / count at 14 days / count at 28 days: PA, use concentration in label
[3] = test system: Staphylococcus aureus; conditions: for count at 2 days / count at 7 days / count at 14 days / count at 28 days: SA, use concentration in label
[4] = test system: Escherichia coli; conditions: for count at 2 days / count at 7 days / count at 14 days / count at 28 days: EC, use concentration in label
[5] = 28 days after inoculation, o/w emulsion (Table 53)
[6] = 2 days after inoculation, o/w emulsion (Table 53)
[7] = 7 days after inoculation, o/w emulsion (Table 53)
[8] = 14 days after inoculation, o/w emulsion (Table 53)
[9] = CA, 28 days after inoculation, use concentration in label
[10] = in wet wipes, 7 days after inoculation
[11] = in wet wipes, 14 days after inoculation
[12] = in wet wipes, 28 days after inoculation
[13] = in wet wipes, 2 days after inoculation
[14] = 2 days after inoculation, substance at given % in test formulation
[15] = 7 days after inoculation, substance at given % in test formulation
[16] = 14 days after inoculation, substance at given % in test formulation
[17] = 28 days after inoculation, substance at given % in test formulation

## CCCCC(CC)COCC(O)CO (centres unmarked) [Ethylhexlglycerin, Ethylhexylglycerin, reference compound]
[1]; [5]
  germ count CA, 28 days: 950.000
[1]; PET, Candida albicans (CA), 28 days after inoculation
  number of microorganisms, 28 days: 950.000
[2]; [6]
  germ count PA, 2 days: 1
[2]; [7]
  germ count PA, 7 days: 1
[2]; [8]
  germ count PA, 14 days: 1
[2]; [5]
  germ count PA, 28 days: 1
[2]; PET, Pseudomonas aeruginosa (PA), 2 days after inoculation
  number of microorganisms, 2 days: 1
[2]; PET, Pseudomonas aeruginosa (PA), 7 days after inoculation
  number of microorganisms, 7 days: 1
[2]; PET, Pseudomonas aeruginosa (PA), 14 days after inoculation
  number of microorganisms, 14 days: 1
[2]; PET, Pseudomonas aeruginosa (PA), 28 days after inoculation
  number of microorganisms, 28 days: 1
[3]; [6]
  germ count SA, 2 days: 240.000
[3]; [7]
  germ count SA, 7 days: 36
[3]; [8]
  germ count SA, 14 days: 1
[3]; [5]
  germ count SA, 28 days: 1
[3]; PET, Staphylococcus aureus (SA), 2 days after inoculation
  number of microorganisms, 2 days: 240.000
[3]; PET, Staphylococcus aureus (SA), 7 days after inoculation
  number of microorganisms, 7 days: 36
[3]; PET, Staphylococcus aureus (SA), 14 days after inoculation
  number of microorganisms, 14 days: 1
[3]; PET, Staphylococcus aureus (SA), 28 days after inoculation
  number of microorganisms, 28 days: 1
[4]; [6]
  germ count EC, 2 days: 10.000
[4]; [7]
  germ count EC, 7 days: 82
[4]; [8]
  germ count EC, 14 days: 1
[4]; [5]
  germ count EC, 28 days: 1
[4]; PET, Escherichia coli (EC), 2 days after inoculation
  number of microorganisms, 2 days: 10.000
[4]; PET, Escherichia coli (EC), 7 days after inoculation
  number of microorganisms, 7 days: 82
[4]; PET, Escherichia coli (EC), 14 days after inoculation
  number of microorganisms, 14 days: 1
[4]; PET, Escherichia coli (EC), 28 days after inoculation
  number of microorganisms, 28 days: 1

## CCCCCC(O)CO (centres unmarked) [0.4 % 1,2-heptanediol]
[1]; CA, 7 days after inoculation, use concentration in label
  count at 7 days: 39.000
[1]; CA, use concentration in label
  count at 14 days: 590
[1]; [9]
  count at 28 days: 27
[2]; 2 days after inoculation
  count at 2 days: 1
[2]; 7 days after inoculation
  count at 7 days: 1
[2]; 14 days after inoculation
  count at 14 days: 1
[2]; 28 days after inoculation
  count at 28 days: 1
[3]; 2 days after inoculation
  count at 2 days: 1
[3]; 7 days after inoculation
  count at 7 days: 1
[3]; 14 days after inoculation
  count at 14 days: 1
[3]; 28 days after inoculation
  count at 28 days: 1
[4]; 2 days after inoculation
  count at 2 days: 140
[4]; 7 days after inoculation
  count at 7 days: 1
[4]; 14 days after inoculation
  count at 14 days: 1
[4]; 28 days after inoculation
  count at 28 days: 1

## CCCCCC(O)C(C)O (centres unmarked) [0.1% 2,3-octanediol]
[2]; [10]
  PA germ count, 7 days: 630.000
[2]; [11]
  PA germ count, 14 days: 310.000
[2]; [12]
  PA germ count, 28 days: 27.000
[3]; [13]
  SA germ count, 2 days: 50
[3]; [10]
  SA germ count, 7 days: 50
[3]; [11]
  SA germ count, 14 days: 50
[3]; [12]
  SA germ count, 28 days: 50
[4]; [11]
  EC germ count, 14 days: 850.000
[4]; [12]
  EC germ count, 28 days: 1.600

## CC(C)(C)C(=O)C(Oc1ccc(Cl)cc1)n1ccnc1 (centres unmarked) [0.4% Climbazole]
[1]; CA, use concentration in label
  count at 14 days: 760.000
[1]; [9]
  count at 28 days: 72.000
[2]; 28 days after inoculation
  count at 28 days: 940.000
[3]; 2 days after inoculation
  count at 2 days: 340.000
[3]; 7 days after inoculation
  count at 7 days: 1
[3]; 14 days after inoculation
  count at 14 days: 1
[3]; 28 days after inoculation
  count at 28 days: 1
[4]; 2 days after inoculation
  count at 2 days: 940.000
[4]; 7 days after inoculation
  count at 7 days: 810.000
[4]; 14 days after inoculation
  count at 14 days: 690
[4]; 28 days after inoculation
  count at 28 days: 1

## CCCCC(O)C(C)O (centres unmarked) [0.4% 2,3 Heptandiol]
[1]; CA, use concentration in label
  count at 14 days: 39.000
[1]; [9]
  count at 28 days: 76.000
[2]; 2 days after inoculation
  count at 2 days: 1
[2]; 7 days after inoculation
  count at 7 days: 1
[2]; 14 days after inoculation
  count at 14 days: 1
[2]; 28 days after inoculation
  count at 28 days: 1
[3]; 7 days after inoculation
  count at 7 days: 1
[3]; 14 days after inoculation
  count at 14 days: 1
[3]; 28 days after inoculation
  count at 28 days: 1
[4]; 7 days after inoculation
  count at 7 days: 1
[4]; 14 days after inoculation
  count at 14 days: 1
[4]; 28 days after inoculation
  count at 28 days: 1

## CCCCCC(O)CO (centres unmarked) [0.2% 1.2-heptanediol]
[1]; 28 days after inoculation
  CA germ count, 28 days: 310.000
[3]; [14]
  SA germ count, 2 days: 12.000
[3]; [15]
  SA germ count, 7 days: 1
[4]; [14]
  EC germ count, 2 days: 780.000
[4]; [15]
  EC germ count, 7 days: 83.000
[4]; [16]
  EC germ count, 14 days: 11.000
[4]; [17]
  EC germ count, 28 days: 180

## CCCCCC(O)CO (centres unmarked) [0.3% 1.2-heptanediol]
[1]; CA, use concentration in label
  count at 14 days: 260.000
[1]; [9]
  count at 28 days: 150.000
[2]; 2 days after inoculation
  count at 2 days: 1
[2]; 7 days after inoculation
  count at 7 days: 1
[2]; 14 days after inoculation
  count at 14 days: 1
[2]; 28 days after inoculation
  count at 28 days: 1
[3]; 2 days after inoculation
  count at 2 days: 16.000
[3]; 7 days after inoculation
  count at 7 days: 1
[3]; 14 days after inoculation
  count at 14 days: 1
[3]; 28 days after inoculation
  count at 28 days: 1
[4]; 2 days after inoculation
  count at 2 days: 130.000
[4]; 7 days after inoculation
  count at 7 days: 2.400
[4]; 14 days after inoculation
  count at 14 days: 1
[4]; 28 days after inoculation
  count at 28 days: 1

## CCCCCC(O)C(C)O (centres unmarked) [0.1% 2,3-Octanediol]
[2]; [16]
  PA germ count, 14 days: 1
[2]; [17]
  PA germ count, 28 days: 1
[3]; [15]
  SA germ count, 7 days: 9.500
[3]; [16]
  SA germ count, 14 days: 1
[3]; [17]
  SA germ count, 28 days: 1
[4]; [14]
  EC germ count, 2 days: 690.000
[4]; [15]
  EC germ count, 7 days: 11.000
[4]; [16]
  EC germ count, 14 days: 1.200
[4]; [17]
  EC germ count, 28 days: 1

## CC(CO)CCCC1CCCCC1 (centres unmarked) [1.0% 2-Methyl 5-Cyclohexylpentanol]
[1]; 28 days after inoculation
  CA germ count, 28 days: 630.000
[2]; [14]
  PA germ count, 2 days: 670.000
[2]; [15]
  PA germ count, 7 days: 570.000
[2]; [16]
  PA germ count, 14 days: 780.000
[3]; [14]
  SA germ count, 2 days: 110.000
[3]; [15]
  SA germ count, 7 days: 760
[3]; [16]
  SA germ count, 14 days: 1
[3]; [17]
  SA germ count, 28 days: 1
[4]; [14]
  EC germ count, 2 days: 960.000
[4]; [15]
  EC germ count, 7 days: 490.000
[4]; [16]
  EC germ count, 14 days: 310.000
[4]; [17]
  EC germ count, 28 days: 380.000

## Cc1cc(O)ccc1C(C)C [0.1% o-Cymen-5-ol]
[1]; [9]
  count at 28 days: 690.000
[2]; 7 days after inoculation
  count at 7 days: 250.000
[2]; 14 days after inoculation
  count at 14 days: 900.000
[2]; 28 days after inoculation
  count at 28 days: 460.000
[3]; 7 days after inoculation
  count at 7 days: 18.000
[3]; 14 days after inoculation
  count at 14 days: 1
[3]; 28 days after inoculation
  count at 28 days: 1
[4]; 7 days after inoculation
  count at 7 days: 270.000
[4]; 14 days after inoculation
  count at 14 days: 270.000
[4]; 28 days after inoculation
  count at 28 days: 51.000

## CCCCCCC(O)CO (centres unmarked) [0.2% 1,2-octanediol]
[1]
  CA germ count, 2 days: 950.000
  CA germ count, 14 days: 36
[1]; 7 days after inoculation
  CA germ count, 7 days: 15.000
[1]; 28 days after inoculation
  CA germ count, 28 days: 1
[2]; [14]
  PA germ count, 2 days: 1
[2]; [15]
  PA germ count, 7 days: 1
[2]; [16]
  PA germ count, 14 days: 1
[2]; [17]
  PA germ count, 28 days: 1
[3]; [14]
  SA germ count, 2 days: 1
[3]; [15]
  SA germ count, 7 days: 1
[3]; [16]
  SA germ count, 14 days: 1
[3]; [17]
  SA germ count, 28 days: 1
[4]; [14]
  EC germ count, 2 days: 1
[4]; [15]
  EC germ count, 7 days: 1
[4]; [16]
  EC germ count, 14 days: 1
[4]; [17]
  EC germ count, 28 days: 1

## CCCCCCC(O)CO (centres unmarked) [0.1% 1,2-octanediol]
[2]; [11]
  PA germ count, 14 days: 750.000
[2]; [12]
  PA germ count, 28 days: 350.000
[3]; [13]
  SA germ count, 2 days: 425
[3]; [10]
  SA germ count, 7 days: 50
[3]; [11]
  SA germ count, 14 days: 50
[3]; [12]
  SA germ count, 28 days: 50
[4]; [12]
  EC germ count, 28 days: 2.300

## CCCCCCCC(=O)OCC(O)CO (centres unmarked) [0.1% glyceryl caprylate]
[1]
  CA germ count, 2 days: 990.000
  CA germ count, 14 days: 280.000
[1]; 7 days after inoculation
  CA germ count, 7 days: 690.000
[1]; 28 days after inoculation
  CA germ count, 28 days: 220.000
[2]; [14]
  PA germ count, 2 days: 1.800
[2]; [15]
  PA germ count, 7 days: 690
[2]; [16]
  PA germ count, 14 days: 2.400
[2]; [17]
  PA germ count, 28 days: 39.000
[3]; [14]
  SA germ count, 2 days: 15.000
[3]; [15]
  SA germ count, 7 days: 1
[3]; [16]
  SA germ count, 14 days: 1
[3]; [17]
  SA germ count, 28 days: 1
[4]; [14]
  EC germ count, 2 days: 1
[4]; [15]
  EC germ count, 7 days: 1
[4]; [16]
  EC germ count, 14 days: 1
[4]; [17]
  EC germ count, 28 days: 1
